{"source": "the kinase profiling compilation of Christmann-Franck et al. (2016)", "test_in_all_cases": "radiometric filter-binding kinase assay, Kinase HotSpot", "conditions_in_all_cases": "compound 0.5 µM; ATP 10 µM", "key": {"FGFR4 (human)": {"biological_target": "FGFR4 (human) (UniProt P22455)"}, "NEK9 (human)": {"biological_target": "NEK9 (human) (UniProt Q8TD19)"}, "TLK2 (human)": {"biological_target": "TLK2 (human) (UniProt Q86UE8)"}, "IRAK4 (human)": {"biological_target": "IRAK4 (human) (UniProt Q9NWZ3)"}, "CHEK1 (human)": {"biological_target": "CHEK1 (human) (UniProt O14757)"}, "ABL1 (human)": {"biological_target": "ABL1 (human) (UniProt P00519)"}, "TSSK2 (human)": {"biological_target": "TSSK2 (human) (UniProt Q96PF2)", "sequence (Q96PF2 whole entry, looked up)": "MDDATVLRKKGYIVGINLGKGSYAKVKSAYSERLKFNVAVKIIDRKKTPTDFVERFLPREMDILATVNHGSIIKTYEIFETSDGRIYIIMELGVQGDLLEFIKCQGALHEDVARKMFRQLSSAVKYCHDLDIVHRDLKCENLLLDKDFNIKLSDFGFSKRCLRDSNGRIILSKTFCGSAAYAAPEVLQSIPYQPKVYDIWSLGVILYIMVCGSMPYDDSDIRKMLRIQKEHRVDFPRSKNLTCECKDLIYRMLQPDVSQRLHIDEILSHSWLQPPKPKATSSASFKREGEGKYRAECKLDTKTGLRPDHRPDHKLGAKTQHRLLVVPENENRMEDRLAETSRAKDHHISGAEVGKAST"}, "DSTYK (human)": {"biological_target": "DSTYK (human) (UniProt Q6XUX3)", "sequence (Q6XUX3 whole entry, looked up)": "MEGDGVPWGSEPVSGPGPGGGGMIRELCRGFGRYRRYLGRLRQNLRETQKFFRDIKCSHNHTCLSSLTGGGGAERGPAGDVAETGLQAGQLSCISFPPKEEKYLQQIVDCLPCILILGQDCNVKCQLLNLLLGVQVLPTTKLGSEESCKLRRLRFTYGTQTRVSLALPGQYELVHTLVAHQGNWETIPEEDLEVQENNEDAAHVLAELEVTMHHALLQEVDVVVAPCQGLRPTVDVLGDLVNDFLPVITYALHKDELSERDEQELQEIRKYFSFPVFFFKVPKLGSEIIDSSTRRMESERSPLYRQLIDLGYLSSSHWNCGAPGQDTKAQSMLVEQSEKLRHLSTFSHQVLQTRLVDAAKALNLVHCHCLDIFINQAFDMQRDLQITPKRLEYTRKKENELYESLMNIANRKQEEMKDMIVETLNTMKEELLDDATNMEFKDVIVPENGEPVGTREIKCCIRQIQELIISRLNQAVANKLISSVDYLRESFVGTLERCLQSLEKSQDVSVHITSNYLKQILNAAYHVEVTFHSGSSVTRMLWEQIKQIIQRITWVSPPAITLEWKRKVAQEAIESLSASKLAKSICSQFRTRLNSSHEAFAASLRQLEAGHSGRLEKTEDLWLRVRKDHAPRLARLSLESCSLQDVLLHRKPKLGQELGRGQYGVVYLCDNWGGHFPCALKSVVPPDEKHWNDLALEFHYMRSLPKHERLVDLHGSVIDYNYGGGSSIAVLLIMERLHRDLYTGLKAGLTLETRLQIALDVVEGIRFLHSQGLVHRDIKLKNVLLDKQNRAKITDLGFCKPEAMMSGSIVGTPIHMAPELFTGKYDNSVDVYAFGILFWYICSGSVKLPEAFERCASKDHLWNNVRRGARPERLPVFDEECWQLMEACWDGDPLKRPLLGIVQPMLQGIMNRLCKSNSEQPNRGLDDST"}, "IGF1R (human)": {"biological_target": "IGF1R (human) (UniProt P08069)"}, "RAF1 (human)": {"biological_target": "RAF1 (human) (UniProt P04049)"}, "PHKG1 (human)": {"biological_target": "PHKG1 (human) (UniProt Q16816)", "sequence (Q16816 whole entry, looked up)": "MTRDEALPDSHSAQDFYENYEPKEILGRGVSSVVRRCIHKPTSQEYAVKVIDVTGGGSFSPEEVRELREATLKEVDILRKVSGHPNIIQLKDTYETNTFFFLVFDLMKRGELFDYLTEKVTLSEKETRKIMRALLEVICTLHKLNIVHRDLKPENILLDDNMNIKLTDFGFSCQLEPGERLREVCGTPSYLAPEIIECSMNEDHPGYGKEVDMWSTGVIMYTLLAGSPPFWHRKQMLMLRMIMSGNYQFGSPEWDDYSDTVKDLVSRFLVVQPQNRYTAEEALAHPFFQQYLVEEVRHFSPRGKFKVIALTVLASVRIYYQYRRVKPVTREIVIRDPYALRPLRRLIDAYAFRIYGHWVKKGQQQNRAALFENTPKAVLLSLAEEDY"}, "PDGFRA (human)": {"biological_target": "PDGFRA (human) (UniProt P16234)"}, "PRKCD (human)": {"biological_target": "PRKCD (human) (UniProt Q05655)"}, "CDC42BPB (human)": {"biological_target": "CDC42BPB (human) (UniProt Q9Y5S2)"}, "RPS6KA6 KD1 KD2 (human)": {"biological_target": "RPS6KA6 KD1 KD2 (human) (UniProt Q9UK32)"}, "ADRBK2 (human)": {"biological_target": "ADRBK2 (human) (UniProt P35626)"}, "EPHB4 (human)": {"biological_target": "EPHB4 (human) (UniProt P54760)"}, "BRAF (human)": {"biological_target": "BRAF (human) (UniProt P15056)"}, "MET (human)": {"biological_target": "MET (human) (UniProt P08581)"}, "DAPK2 (human)": {"biological_target": "DAPK2 (human) (UniProt Q9UIK4)", "sequence (Q9UIK4 whole entry, looked up)": "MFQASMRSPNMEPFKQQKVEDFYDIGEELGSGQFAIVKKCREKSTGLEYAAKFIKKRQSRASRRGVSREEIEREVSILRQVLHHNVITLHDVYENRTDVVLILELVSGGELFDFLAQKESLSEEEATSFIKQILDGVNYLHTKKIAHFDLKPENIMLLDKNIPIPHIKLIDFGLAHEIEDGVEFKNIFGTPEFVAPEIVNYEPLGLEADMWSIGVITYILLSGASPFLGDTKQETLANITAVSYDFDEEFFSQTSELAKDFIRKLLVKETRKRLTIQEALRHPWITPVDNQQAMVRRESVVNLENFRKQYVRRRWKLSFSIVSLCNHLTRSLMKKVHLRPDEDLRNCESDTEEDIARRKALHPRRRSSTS"}, "EPHA6 (human)": {"biological_target": "EPHA6 (human) (UniProt Q9UF33)"}, "LIMK1 (human)": {"biological_target": "LIMK1 (human) (UniProt P53667)"}, "PTK2 (human)": {"biological_target": "PTK2 (human) (UniProt Q05397)"}, "NEK6 (human)": {"biological_target": "NEK6 (human) (UniProt Q9HC98)"}, "EPHB3 (human)": {"biological_target": "EPHB3 (human) (UniProt P54753)", "sequence (P54753 whole entry, looked up)": "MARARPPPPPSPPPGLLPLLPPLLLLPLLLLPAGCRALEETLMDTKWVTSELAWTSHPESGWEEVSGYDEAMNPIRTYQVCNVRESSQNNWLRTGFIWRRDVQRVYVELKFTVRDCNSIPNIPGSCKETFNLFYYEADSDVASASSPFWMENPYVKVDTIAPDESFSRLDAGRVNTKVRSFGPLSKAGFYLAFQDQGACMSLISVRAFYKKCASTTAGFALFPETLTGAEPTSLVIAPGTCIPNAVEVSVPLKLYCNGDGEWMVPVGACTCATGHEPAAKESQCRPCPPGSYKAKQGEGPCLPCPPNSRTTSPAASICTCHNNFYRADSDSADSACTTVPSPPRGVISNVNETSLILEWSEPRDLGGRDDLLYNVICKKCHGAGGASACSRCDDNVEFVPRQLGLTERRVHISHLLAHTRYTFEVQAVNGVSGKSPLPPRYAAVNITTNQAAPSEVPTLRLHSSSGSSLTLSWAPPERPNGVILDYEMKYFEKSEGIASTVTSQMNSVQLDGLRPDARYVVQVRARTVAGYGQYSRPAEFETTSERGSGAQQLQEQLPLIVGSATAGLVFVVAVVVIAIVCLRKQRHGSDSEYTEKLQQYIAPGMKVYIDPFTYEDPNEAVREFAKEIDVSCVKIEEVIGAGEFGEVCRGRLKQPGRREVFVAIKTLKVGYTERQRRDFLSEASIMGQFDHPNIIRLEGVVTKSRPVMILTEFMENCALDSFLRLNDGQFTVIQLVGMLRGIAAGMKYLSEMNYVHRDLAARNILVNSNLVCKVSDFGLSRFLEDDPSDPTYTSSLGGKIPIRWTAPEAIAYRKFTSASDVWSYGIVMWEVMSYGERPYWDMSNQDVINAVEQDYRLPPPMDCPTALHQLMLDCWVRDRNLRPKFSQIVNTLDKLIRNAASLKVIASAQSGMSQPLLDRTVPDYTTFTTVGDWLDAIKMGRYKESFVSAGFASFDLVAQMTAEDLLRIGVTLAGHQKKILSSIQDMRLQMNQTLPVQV"}, "TGFBR1 (human)": {"biological_target": "TGFBR1 (human) (UniProt P36897)"}, "TEC (human)": {"biological_target": "TEC (human) (UniProt P42680)", "sequence (P42680 whole entry, looked up)": "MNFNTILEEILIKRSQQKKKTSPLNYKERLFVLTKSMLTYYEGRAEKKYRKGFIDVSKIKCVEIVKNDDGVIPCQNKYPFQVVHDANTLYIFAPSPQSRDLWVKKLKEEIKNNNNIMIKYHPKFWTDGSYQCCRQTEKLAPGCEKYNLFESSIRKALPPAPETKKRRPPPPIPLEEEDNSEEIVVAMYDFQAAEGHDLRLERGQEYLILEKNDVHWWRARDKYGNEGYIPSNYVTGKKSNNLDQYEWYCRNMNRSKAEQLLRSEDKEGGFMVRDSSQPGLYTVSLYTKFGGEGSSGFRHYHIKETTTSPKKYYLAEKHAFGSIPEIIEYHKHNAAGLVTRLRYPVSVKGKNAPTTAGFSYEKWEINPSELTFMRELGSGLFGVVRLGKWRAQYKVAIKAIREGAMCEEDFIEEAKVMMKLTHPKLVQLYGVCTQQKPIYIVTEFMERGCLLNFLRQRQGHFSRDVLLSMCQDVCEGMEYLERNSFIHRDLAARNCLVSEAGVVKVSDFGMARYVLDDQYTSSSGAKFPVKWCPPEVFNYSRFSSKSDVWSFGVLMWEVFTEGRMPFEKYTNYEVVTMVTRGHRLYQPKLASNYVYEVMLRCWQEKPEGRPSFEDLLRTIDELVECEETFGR"}, "NEK3 (human)": {"biological_target": "NEK3 (human) (UniProt P51956)", "sequence (P51956 whole entry, looked up)": "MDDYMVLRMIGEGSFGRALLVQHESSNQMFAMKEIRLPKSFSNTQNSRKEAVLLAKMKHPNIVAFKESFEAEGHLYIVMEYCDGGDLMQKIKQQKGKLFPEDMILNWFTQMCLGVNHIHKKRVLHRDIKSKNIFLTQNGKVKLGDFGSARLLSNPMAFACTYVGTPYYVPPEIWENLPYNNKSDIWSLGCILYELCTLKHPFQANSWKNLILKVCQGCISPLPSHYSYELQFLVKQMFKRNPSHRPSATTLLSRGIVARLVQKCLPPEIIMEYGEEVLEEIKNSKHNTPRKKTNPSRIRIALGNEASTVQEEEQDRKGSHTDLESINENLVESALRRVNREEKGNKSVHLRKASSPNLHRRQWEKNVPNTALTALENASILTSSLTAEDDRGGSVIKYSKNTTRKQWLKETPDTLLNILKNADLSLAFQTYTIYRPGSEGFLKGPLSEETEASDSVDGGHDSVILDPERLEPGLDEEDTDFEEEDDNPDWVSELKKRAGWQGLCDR"}, "STK16 (human)": {"biological_target": "STK16 (human) (UniProt O75716)", "sequence (O75716 whole entry, looked up)": "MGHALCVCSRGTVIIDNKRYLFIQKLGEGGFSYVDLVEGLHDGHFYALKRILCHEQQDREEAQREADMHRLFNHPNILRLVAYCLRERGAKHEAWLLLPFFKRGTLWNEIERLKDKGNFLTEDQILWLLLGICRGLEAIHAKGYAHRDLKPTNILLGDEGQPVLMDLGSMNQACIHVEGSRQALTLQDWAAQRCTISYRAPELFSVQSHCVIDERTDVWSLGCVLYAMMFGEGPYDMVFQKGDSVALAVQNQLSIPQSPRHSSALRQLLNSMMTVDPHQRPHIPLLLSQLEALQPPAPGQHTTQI"}, "DYRK2 (human)": {"biological_target": "DYRK2 (human) (UniProt Q92630)"}, "ADRBK1 (human)": {"biological_target": "ADRBK1 (human) (UniProt P25098)"}, "MAP3K9 (human)": {"biological_target": "MAP3K9 (human) (UniProt P80192)"}, "LYN (human)": {"biological_target": "LYN (human) (UniProt P07948)", "sequence (P07948 whole entry, looked up)": "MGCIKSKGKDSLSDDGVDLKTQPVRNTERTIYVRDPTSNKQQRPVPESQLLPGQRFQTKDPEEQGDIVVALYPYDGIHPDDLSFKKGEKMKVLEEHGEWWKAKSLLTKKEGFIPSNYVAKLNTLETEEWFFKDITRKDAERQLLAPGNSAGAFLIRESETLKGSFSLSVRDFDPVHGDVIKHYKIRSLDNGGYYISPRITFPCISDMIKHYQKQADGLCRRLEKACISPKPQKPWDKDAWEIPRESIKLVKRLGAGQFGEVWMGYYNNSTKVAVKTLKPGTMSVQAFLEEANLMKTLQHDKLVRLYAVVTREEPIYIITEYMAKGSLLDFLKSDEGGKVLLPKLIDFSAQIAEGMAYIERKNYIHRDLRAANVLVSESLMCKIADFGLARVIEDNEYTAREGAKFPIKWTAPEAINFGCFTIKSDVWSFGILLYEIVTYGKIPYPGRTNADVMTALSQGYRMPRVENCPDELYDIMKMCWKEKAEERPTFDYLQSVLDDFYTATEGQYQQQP"}, "STK25 (human)": {"biological_target": "STK25 (human) (UniProt O00506)"}, "PHKG2 (human)": {"biological_target": "PHKG2 (human) (UniProt P15735)"}, "ACVR1 (human)": {"biological_target": "ACVR1 (human) (UniProt Q04771)"}, "SRMS (human)": {"biological_target": "SRMS (human) (UniProt Q9H3Y6)"}, "NUAK2 (human)": {"biological_target": "NUAK2 (human) (UniProt Q9H093)"}, "CDC42BPA (human)": {"biological_target": "CDC42BPA (human) (UniProt Q5VT25)"}, "CAMK1G (human)": {"biological_target": "CAMK1G (human) (UniProt Q96NX5)"}}, "note": "Values joined by “and” are separate entries in the source; they are usually repeats but may differ in a detail not shown here. Identical values can stand only once.", "data": [{"molecule": "N#C/C(=C(/N)Sc1ccc(N)cc1)c1ccccc1C(F)(F)F", "values": [{"measurement": "residual activity", "setting": "FGFR4 (human)", "value": 108, "unit": "%"}, {"measurement": "residual activity", "setting": "NEK9 (human)", "value": 99.2, "unit": "%"}, {"measurement": "residual activity", "setting": "TLK2 (human)", "value": 92.5, "unit": "%"}, {"measurement": "residual activity", "setting": "IRAK4 (human)", "value": 89.8, "unit": "%"}, {"measurement": "residual activity", "setting": "CHEK1 (human)", "value": 97.5, "unit": "%"}, {"measurement": "residual activity", "setting": "ABL1 (human)", "value": 106, "unit": "%"}, {"measurement": "residual activity", "setting": "TSSK2 (human)", "value": 94.2, "unit": "%"}, {"measurement": "residual activity", "setting": "DSTYK (human)", "value": 113, "unit": "%"}, {"measurement": "residual activity", "setting": "IGF1R (human)", "value": 97.4, "unit": "%"}, {"measurement": "residual activity", "setting": "RAF1 (human)", "value": 103, "unit": "%"}, {"measurement": "residual activity", "setting": "PHKG1 (human)", "value": 95.8, "unit": "%"}, {"measurement": "residual activity", "setting": "PDGFRA (human)", "value": 99.5, "unit": "%"}, {"measurement": "residual activity", "setting": "PRKCD (human)", "value": 97.5, "unit": "%"}, {"measurement": "residual activity", "setting": "CDC42BPB (human)", "value": 104, "unit": "%"}, {"measurement": "residual activity", "setting": "RPS6KA6 KD1 KD2 (human)", "value": 83.9, "unit": "%"}, {"measurement": "residual activity", "setting": "ADRBK2 (human)", "value": 101, "unit": "%"}, {"measurement": "residual activity", "setting": "EPHB4 (human)", "value": 102, "unit": "%"}, {"measurement": "residual activity", "setting": "BRAF (human)", "value": 95, "unit": "%"}, {"measurement": "residual activity", "setting": "MET (human)", "value": 77.2, "unit": "%"}, {"measurement": "residual activity", "setting": "DAPK2 (human)", "value": 112, "unit": "%"}, {"measurement": "residual activity", "setting": "EPHA6 (human)", "value": 92.3, "unit": "%"}, {"measurement": "residual activity", "setting": "LIMK1 (human)", "value": 98.7, "unit": "%"}, {"measurement": "residual activity", "setting": "PTK2 (human)", "value": 101, "unit": "%"}, {"measurement": "residual activity", "setting": "NEK6 (human)", "value": 101, "unit": "%"}, {"measurement": "residual activity", "setting": "EPHB3 (human)", "value": 96.7, "unit": "%"}, {"measurement": "residual activity", "setting": "TGFBR1 (human)", "value": 98.3, "unit": "%"}, {"measurement": "residual activity", "setting": "TEC (human)", "value": 109, "unit": "%"}, {"measurement": "residual activity", "setting": "NEK3 (human)", "value": 99.6, "unit": "%"}, {"measurement": "residual activity", "setting": "STK16 (human)", "value": 98.4, "unit": "%"}, {"measurement": "residual activity", "setting": "DYRK2 (human)", "value": 96.6, "unit": "%"}, {"measurement": "residual activity", "setting": "ADRBK1 (human)", "value": 114, "unit": "%"}, {"measurement": "residual activity", "setting": "MAP3K9 (human)", "value": 85.9, "unit": "%"}, {"measurement": "residual activity", "setting": "LYN (human)", "value": "107% and 98.5%"}, {"measurement": "residual activity", "setting": "STK25 (human)", "value": 114, "unit": "%"}, {"measurement": "residual activity", "setting": "PHKG2 (human)", "value": 96.1, "unit": "%"}, {"measurement": "residual activity", "setting": "ACVR1 (human)", "value": 101, "unit": "%"}, {"measurement": "residual activity", "setting": "SRMS (human)", "value": 105, "unit": "%"}, {"measurement": "residual activity", "setting": "NUAK2 (human)", "value": 75, "unit": "%"}, {"measurement": "residual activity", "setting": "CDC42BPA (human)", "value": 103, "unit": "%"}, {"measurement": "residual activity", "setting": "CAMK1G (human)", "value": 96.6, "unit": "%"}]}, {"molecule": "CCOC(=O)c1c(C)[nH]c(/C=C2\\C(=O)Nc3ccccc32)c1C", "values": [{"measurement": "residual activity", "setting": "FGFR4 (human)", "value": 82.4, "unit": "%"}, {"measurement": "residual activity", "setting": "NEK9 (human)", "value": 80.8, "unit": "%"}, {"measurement": "residual activity", "setting": "TLK2 (human)", "value": 96.5, "unit": "%"}, {"measurement": "residual activity", "setting": "IRAK4 (human)", "value": 96.8, "unit": "%"}, {"measurement": "residual activity", "setting": "CHEK1 (human)", "value": 89.4, "unit": "%"}, {"measurement": "residual activity", "setting": "ABL1 (human)", "value": 95.4, "unit": "%"}, {"measurement": "residual activity", "setting": "TSSK2 (human)", "value": 95.9, "unit": "%"}, {"measurement": "residual activity", "setting": "DSTYK (human)", "value": 90.8, "unit": "%"}, {"measurement": "residual activity", "setting": "IGF1R (human)", "value": 79.5, "unit": "%"}, {"measurement": "residual activity", "setting": "RAF1 (human)", "value": 89.6, "unit": "%"}, {"measurement": "residual activity", "setting": "PHKG1 (human)", "value": 73.3, "unit": "%"}, {"measurement": "residual activity", "setting": "PDGFRA (human)", "value": 82.8, "unit": "%"}, {"measurement": "residual activity", "setting": "PRKCD (human)", "value": 91.6, "unit": "%"}, {"measurement": "residual activity", "setting": "CDC42BPB (human)", "value": 110, "unit": "%"}, {"measurement": "residual activity", "setting": "RPS6KA6 KD1 KD2 (human)", "value": 87.6, "unit": "%"}, {"measurement": "residual activity", "setting": "ADRBK2 (human)", "value": 94.7, "unit": "%"}, {"measurement": "residual activity", "setting": "EPHB4 (human)", "value": 89.5, "unit": "%"}, {"measurement": "residual activity", "setting": "BRAF (human)", "value": 96.7, "unit": "%"}, {"measurement": "residual activity", "setting": "MET (human)", "value": 87.4, "unit": "%"}, {"measurement": "residual activity", "setting": "DAPK2 (human)", "value": 96.3, "unit": "%"}, {"measurement": "residual activity", "setting": "EPHA6 (human)", "value": 80, "unit": "%"}, {"measurement": "residual activity", "setting": "LIMK1 (human)", "value": 81.3, "unit": "%"}, {"measurement": "residual activity", "setting": "PTK2 (human)", "value": 93, "unit": "%"}, {"measurement": "residual activity", "setting": "NEK6 (human)", "value": 98.1, "unit": "%"}, {"measurement": "residual activity", "setting": "EPHB3 (human)", "value": 94.4, "unit": "%"}, {"measurement": "residual activity", "setting": "TGFBR1 (human)", "value": 99.7, "unit": "%"}, {"measurement": "residual activity", "setting": "TEC (human)", "value": 141, "unit": "%"}, {"measurement": "residual activity", "setting": "NEK3 (human)", "value": 101, "unit": "%"}, {"measurement": "residual activity", "setting": "STK16 (human)", "value": 88.3, "unit": "%"}, {"measurement": "residual activity", "setting": "DYRK2 (human)", "value": 92.4, "unit": "%"}, {"measurement": "residual activity", "setting": "ADRBK1 (human)", "value": 98.2, "unit": "%"}, {"measurement": "residual activity", "setting": "MAP3K9 (human)", "value": 61.6, "unit": "%"}, {"measurement": "residual activity", "setting": "LYN (human)", "value": "84.1% and 98.4%"}, {"measurement": "residual activity", "setting": "STK25 (human)", "value": 98.5, "unit": "%"}, {"measurement": "residual activity", "setting": "PHKG2 (human)", "value": 96.2, "unit": "%"}, {"measurement": "residual activity", "setting": "ACVR1 (human)", "value": 99.8, "unit": "%"}, {"measurement": "residual activity", "setting": "SRMS (human)", "value": 104, "unit": "%"}, {"measurement": "residual activity", "setting": "NUAK2 (human)", "value": 128, "unit": "%"}, {"measurement": "residual activity", "setting": "CDC42BPA (human)", "value": 85.7, "unit": "%"}, {"measurement": "residual activity", "setting": "CAMK1G (human)", "value": 98.2, "unit": "%"}]}]}
